Values of other authors, collected in publication PMC4198065 (ACS Chemical Neuroscience, 2014).

What was measured:
[1] = tested on: food consumption and body weight in rats; settings: ICV
[2] = tested on: food intake in mice; settings: effect lasting up to 24 h

In the case of “Ac-RRWWRF-NH2 [AST789-13, Ac-RRWWRF-NH2]”, the “half-life in human serum” value is given as 1.5 h.
For “Ac-Nle-c[Asp-His-DPhe-Arg-Trp-Lys]-NH2 (sidechain bridge or staple) [MTII]”, the “48 h food consumption” value ([1]; 1.0 nmol dose) is given as “reduced 48 h food consumption” and the “body weight post treatment” value ([1]; at 24 and 48 h (0.1 and 1.0 nmol doses, respectively)) is given as “reduced body weight at 24 and 48 h”.
For “AGRP: endogenous antagonist of the MC3R and MC4R (SSRRCVRLHESCLGQQVPCCDPCATCYCRFFNAFCYCRKLGTAMNPCSRT; UniProt O00253 83-132, looked up)”, the “food intake after central administration” value [2] is listed as “robustly increased food intake”.
